From US20150031739A1, “PANOBINOSTAT FOR USE IN THE TREATMENT OF HIV-1” (Aarhus Universitet, priority 2012, published 2015)

Columns and labels:
[1] = tested on: HIV-1 expression in U1 cells; test: HIV-1 activation from U1 cells (p24 gag ELISA); format: cell-based; settings: 48 hours
Protocol: (§1) HIV-1 activation from U1 cells: U1 cells (obtained through the NIH AIDS Reagent Program) are seeded at 2*10^5/well in a 96-well format in 100 uL RPMI media supplemented with 10% heat inactivated Foetal Bovine Serum and 1% penicillin/streptomycin. HDACi and PMA as positive control is added at desired concentrations in 100 uL. Identical DMSO levels is used for untreated control. All stimulations are performed in triplicate. 48 hours later supernatant is harvested and left for inactivation in 1% Empegen for 1 hour. Levels of HIV-1 p24 gag levels is determined by ELISA as described by the manufacturer (Aalto Bioreagents, Dublin, Ireland).

[2] = tested on: HIV-1 expression in ACH2 cells; test: HIV-1 activation from ACH2 cells (p24 gag ELISA); format: cell-based; settings: 48 hours
Protocol: as §1, with “ACH2” for “U1”, “1*10^5/well” for “2*10^5/well”, “Samples are diluted 1/500 and levels” for “Levels”, “gag” for “gag levels”

latent viral reservoir = settings: clinical study; effect could not be sustained in further studies; cited from earlier work
CXCR4 = settings: CD4+ T-cells; cited from earlier work
CCR5 = settings: monocytes; cited from earlier work

Compound | fold increase in median p24 levels with reference to untreated cultures ([1]; 125 nM) | fold increase in median p24 levels with reference to untreated cultures ([1]; 250 nM) | fold increase in median p24 levels with reference to untreated cultures ([2]; 125 nM) | fold increase in median p24 levels with reference to untreated cultures ([2]; 250 nM) | fold increase in median p24 levels with reference to untreated cultures ([1]; 0.25 mM) | fold increase in median p24 levels with reference to untreated cultures ([1]; 0.5 mM) | fold increase in median p24 levels with reference to untreated cultures ([2]; 0.25 mM) | fold increase in median p24 levels with reference to untreated cultures ([2]; 0.5 mM) | patients in whom depletion of the latent viral reservoir was seen (latent viral reservoir) | surface expression of CXCR4 (CXCR4) | surface expression of CCR5 (CCR5) | fold increase in median p24 levels with reference to untreated cultures ([1]; 500 nM) | fold increase in median p24 levels with reference to untreated cultures ([2]; 500 nM)
O=C(/C=C/c1cccc(S(=O)(=O)Nc2ccccc2)c1)NO [PXD101] | 2.4 fold | 7.4 fold | 5.8 fold | 18.3 fold | – | – | – | – | – | – | – | – | –
CCCC(CCC)C(=O)O [VPA, valproic acid] | – | – | – | – | 1.4 fold | 2.8 fold | 2.1 fold | 7.3 fold | 3 of 4 | – | – | – | –
CCN(CC)Cc1ccc2cc(COC(=O)Nc3ccc(C(=O)NO)cc3)ccc2c1 [ITF2357] | 3.2 fold | 9.2 fold | 6.2 fold | 18.5 fold | – | – | – | – | – | decreased surface expression | decreased surface expression | – | –
O=C(CCCCCCC(=O)Nc1ccccc1)NO [SAHA, suberoylanilide hydroxamic acid] | 1.0 fold | 1.5 fold | 1.4 fold | 2.4 fold | – | – | – | – | – | – | – | 3.1 fold | 6.9 fold
